Experiments:
[1] = test system: B16-F10 cells; experiment: CCK-8 antiproliferative assay, B16-F10; format: cell-based, murine; conditions: Mus musculus, cell viability (CCK-8), 48 h
Description: (§1) To evaluate the anticancer potential of the synthesized compounds, a panel of six human and murine cancer cell lines representing different tissue origins was selected, including MCF-7 (human breast adenocarcinoma), MDA-MB-231 (human triple-negative breast cancer), A549 (human non-small cell lung cancer), HeLa (human cervical cancer), A375 (human melanoma), and B16-F10 (murine melanoma) (Table 2). […] DMSO was used as the vehicle control, and all experiments were performed in triplicate to ensure reproducibility.
(§2) Human breast cancer cells (MCF-7), human lung cancer cells (A549), human cervical cancer cells (HeLa), human triple-negative breast cancer cells (MDA-MB-231), and human malignant melanoma cells (A375) were cultured in DMEM. Mouse melanoma cells (B16F10) were maintained in RPMI-1640 medium. All media were supplemented with 10% fetal bovine serum and 1% penicillin-streptomycin (Life Technologies, Carlsbad, CA, USA) and maintained at 37 °C in a humidified atmosphere with 5% CO2.
(§3) The cytotoxicity of the test compounds was evaluated against MCF-7, A549, HeLa, MDA-MB-231, A375, and B16F10 using the CCK-8 assay. Cells were seeded into 96-well plates at a density of 5000 cells/well. After removing the medium, 100 μL of medium with 0.1% DMSO containing test compounds at different concentrations was added to each well and incubated at 37 °C for another 48 h. The CCK-8 solution was added and incubated for another 1 h, and then, the absorbance was detected with a microplate reader at a wavelength of 450 nm. The IC50 values were calculated by nonlinear regression analysis using GraphPad Prism 8.0.2. All the experiments were repeated at least three times.

[2] = test system: A549 cells; experiment: CCK-8 antiproliferative assay, A549; format: cell-based; conditions: Homo sapiens, cell viability (CCK-8), 48 h
Description: as §1, §2, §3

[3] = test system: MCF-7 cells; experiment: Cell cycle analysis by flow cytometry; format: cell-based, human; conditions: 10 μM, 48 h
Description: Given that microtubule polymerization inhibitors are known to disrupt mitosis and induce cell cycle arrest, we evaluated the effect of compound 3g on cell cycle progression in MCF-7 cells by flow cytometry.
MCF-7 cells were seeded in 6-well plates and cultured overnight. Cells were then treated with compound 3g at concentrations of 0.1, 1, and 10 μM for 48 h. After treatment, cells were collected and fixed in 70% ethanol at 4 °C overnight. The fixed cells were washed and resuspended in staining buffer containing RNase A and propidium iodide (PI), followed by incubation in the dark at 37 °C for 30 min. DNA content was subsequently analyzed by flow cytometry.
Figure 6 Cell cycle arrest induced by compound 3g. (A) Compound 3g induced G2/M arrest in MCF-7 cells. MCF-7 cells were incubated with varying concentrations of compound 3g (0.1, 1, and 10 μM) for 48 h. The percentages of cells in different phases of the cell cycle were analyzed by FlowJo 10.8.1. (B) Histograms display the percentage of cell cycle distribution after treatment with compound 3g. Data are expressed as mean ± standard deviation from three independent experiments. Statistical significance was determined by one-way ANOVA followed by Tukey’s post hoc test.

COc1cc(-n2ccc3ccc(-c4ccc(C)c(C#N)c4)cc32)cc(OC)c1OC [3g, 2-methyl-5-(1-(3,4,5-trimethoxyphenyl)-1H-indol-6-yl)benzonitrile]
IC50 [1]: 1.69 ± 0.41 µM
IC50 [2]: 6.3 ± 0.3 µM
cells in the G2/M phase [3]: marked accumulation
